Publication PMC4982760, “Small-molecule inhibitors identify the RAD52-ssDNA interaction as critical for recovery from replication stress and for survival of BRCA2 deficient cells” (eLife, 2016)

Tests used:
RPA = target: T1, RPA (Homo sapiens, UniProt P15927+P27694+P35244); assay: WaterLOGSY NMR binding to RPA; details: 20-40 μM compound, 3.3 μM RPA
T1 construct: made in house
Source text: (§1) To confirm that the selected compounds bind RAD52, we employed water-ligand observation with gradient spectroscopy (WaterLOGSY), an NMR technique, which is based on transfer of magnetization from bulk water to the protein-bound compound of interest ([Dalvit et al., 2001], [2000]). In WaterLOGSY spectrum, if a compound binds to a protein, the compound will receive negative nuclear Overhauser effects (NOEs) due to the slow tumbling of the protein-compound complex, leading to a positive WaterLOGSY peak. […] Similarly, the binding of ‘6’to RAD52 is evident from the positive WaterLOGSY peaks that are clearly detected for this compound (Figure 3a).
(§2) Compound binding to RAD52 and RPA proteins was analyzed using water-ligand observation with gradient spectroscopy (WaterLOGSY) NMR experiments ([Dalvit et al., 2001], [2000]). The WaterLOGSY spectra of compounds in the presence of RAD52 or RPA were acquired using a water NOE mixing time of 1 s and a T2 relaxation filter of 50 ms just before data acquisition to suppress the broad signals derived from protein. The protein buffer used in the experiments contains 10 mM Tris-d11, 75 mM KCl, 0.25 mM EDTA, pH 7.5, and 10% D20. All NMR data were acquired on a Bruker Avance II 800 MHz NMR spectrometer equipped with a sensitive cryoprobe and recorded at 25°C. The ^1H chemical shifts were referenced to 2,2-dimethyl-2-silapentane-5-sulfonate (DSS). NMR spectra were processed using NMR Pipe ([Delaglio et al., 1995]) and analysed using NMR View ([Johnson and Blevins, 1994]).

RPA-ssDNA interaction = target: T2, RPA-ssDNA interaction (Homo sapiens, UniProt P15927+P27694+P35244); assay: FRET titration of the RPA-Cy3-dT30-Cy5 complex; format: binding; details: range of tested concentrations
T2 construct: made in house
Source text: In the cell, ssDNA is typically found in complex with Replication protein A (RPA), the major eukaryotic ssDNA-binding protein essential for DNA replication, repair and recombination ([Wold, 1997]; [Oakley and Patrick, 2010]; [Chen and Wold, 2014]). The RPA-ssDNA complex is a physiologically relevant substrate for the RAD52-mediated strand annealing. […] RPA binds ssDNA with high affinity and extends the ssDNA to its contour length. In our assays such an extension manifests as a distinct FRET state of ~0.3, which is readily distinguished from a FRET state of ~0.48 of free Cy3-dT30-Cy5 ssDNA, as well as ~0.63 FRET of the stoichiometric ssDNA-RPA-RAD52 complex (see Figure 2—figure supplement 1 and ([Grimme and Spies, 2011]) for details). […] Both, however, inhibited the RAD52 binding to and wrapping of RPA-coated ssDNA with IC50 values identical to those determined without RPA (Figure 2e and Figure 3e).
(§3) In all experiments, the FRET values for each data point were corrected for the effects of the compounds on the respective substrate in the absence of RAD52.

RAD52 = target: T3, RAD52 (Homo sapiens, UniProt P43351); assay: WaterLOGSY NMR binding to RAD52; details: 20-40 μM compound, 3.3 μM RAD52
T3 construct: made in house
T3 sequence (P43351 1-418): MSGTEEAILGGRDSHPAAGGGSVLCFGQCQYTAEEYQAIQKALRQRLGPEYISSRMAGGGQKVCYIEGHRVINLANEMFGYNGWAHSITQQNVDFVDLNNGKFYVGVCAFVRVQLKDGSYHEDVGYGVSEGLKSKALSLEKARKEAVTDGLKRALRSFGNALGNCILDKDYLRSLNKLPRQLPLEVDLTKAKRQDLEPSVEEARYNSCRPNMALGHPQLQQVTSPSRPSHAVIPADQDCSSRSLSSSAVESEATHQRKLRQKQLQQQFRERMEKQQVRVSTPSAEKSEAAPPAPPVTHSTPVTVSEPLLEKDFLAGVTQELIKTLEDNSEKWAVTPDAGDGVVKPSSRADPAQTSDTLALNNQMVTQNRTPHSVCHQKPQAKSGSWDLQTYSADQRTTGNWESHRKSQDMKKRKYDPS
Source text: as §1, §2

RAD52-ssDNA interaction = target: T4, RAD52-ssDNA interaction (Homo sapiens, UniProt P43351); assay: FRET-based ssDNA binding and wrapping assay (RAD52-Cy3-dT30-Cy5 complex); details: 1 nM Cy3-dT30-Cy5, 8 nM RAD52, 25°C; read-out: IC50 (DNA binding), ssDNA
T4 construct: made in house
T4 sequence (P43351 1-418): T3 sequence (P43351 1-418)
Experimental: We titrated increasing amounts of each compound into a cuvette containing preformed stoichiometric RAD52-Cy3-dT30-Cy5 complexes (1 nM Cy3-dT30-Cy5 and 8 nM RAD52). […] At each concentration of the compound, the FRET signal was adjusted for the change in Cy3 and Cy5 fluorescence in the presence of the compound, but in the absence of protein.
FRET-based ssDNA binding, dsDNA binding, and annealing assays were carried out as previously described ([Grimme et al., 2010]; [Grimme and Spies, 2011]) using Cary Eclipse spectrofluorimeter (Varian) at 25°C in buffer containing 30 mM Tris-Acetate pH7.5, 1 mM DTT, and 0.1 mg/mL BSA. Cy3 dye was excited at 530 nm and its emission was monitored at 565 nm. Emission of Cy5 acceptor fluorophore excited through the energy transfer from Cy3 donor is monitored at 660 nm simultaneously with emission of Cy3 dye. Both the excitation and the emission slit widths were set to 10 nm.
All experiments were performed in triplicates, and the data are shown as averages and standard deviations for three independent measurements. To remove possible experimental artifacts associated with chromogenic or fluorogenic compounds, as well as with the compounds that may quench or enhance Cy3 or Cy5 fluorescence, we also performed control titrations whereby we titrated each compound into 1 nM Cy3-dT30-Cy5 in the absence of RAD52. For each compound concentration we subtracted the difference in the FRET signal in the presence and absence of the compound from the respective FRET signal in the presence of RAD52. The FRET signal corrected for the compound fluorescence was calculated using the equation: FRETapp=4.2∗ICy5/4.2∗ICy5+ 1.7∗ICy3
as previously described ([Grimme et al., 2010]; [Grimme and Spies, 2011]) and plotted as a function of compound concentration and fitted to the following inhibition model” FRET([small molecule])=FRET0−FRETmin/1+10^(LogIC50−Log([small molecule])∗HillSlope),
where FRET0 is the initial FRET value of the RAD52-ssDNA complex in the absence of the compound and FRETmin is the FRET value at complete inhibition. FRET values were calculated as an average of three or more independent annealing reactions plotted against the concentration of the compound. Inhibition of the RAD52-dsDNA interaction was assayed in a similar experiments, except the stoichiometric complexes containing 1 nM molecules of Cy3-Oligo28-Cy5 duplex DNA and 10 nM RAD52.

[1] = target: T5, RAD52-RPA-Cy3-dT30-Cy5 complex (Homo sapiens, UniProt P43351); assay: FRET-based RAD52 binding/wrapping of RPA-coated ssDNA
T5 construct: made in house
Source text: The RPA-ssDNA complex is a physiologically relevant substrate for the RAD52-mediated strand annealing. […] RPA binds ssDNA with high affinity and extends the ssDNA to its contour length.
as §3

RAD52-dsDNA interaction = target: T6, RAD52-dsDNA interaction (Homo sapiens, UniProt P43351); assay: FRET-based RAD52-dsDNA binding assay; details: 1 nM dsDNA, 10 nM RAD52
T6 construct: made in house
T6 sequence (P43351 1-418): T3 sequence (P43351 1-418)

T5 sequence (P27694 whole entry partner, one chain of several): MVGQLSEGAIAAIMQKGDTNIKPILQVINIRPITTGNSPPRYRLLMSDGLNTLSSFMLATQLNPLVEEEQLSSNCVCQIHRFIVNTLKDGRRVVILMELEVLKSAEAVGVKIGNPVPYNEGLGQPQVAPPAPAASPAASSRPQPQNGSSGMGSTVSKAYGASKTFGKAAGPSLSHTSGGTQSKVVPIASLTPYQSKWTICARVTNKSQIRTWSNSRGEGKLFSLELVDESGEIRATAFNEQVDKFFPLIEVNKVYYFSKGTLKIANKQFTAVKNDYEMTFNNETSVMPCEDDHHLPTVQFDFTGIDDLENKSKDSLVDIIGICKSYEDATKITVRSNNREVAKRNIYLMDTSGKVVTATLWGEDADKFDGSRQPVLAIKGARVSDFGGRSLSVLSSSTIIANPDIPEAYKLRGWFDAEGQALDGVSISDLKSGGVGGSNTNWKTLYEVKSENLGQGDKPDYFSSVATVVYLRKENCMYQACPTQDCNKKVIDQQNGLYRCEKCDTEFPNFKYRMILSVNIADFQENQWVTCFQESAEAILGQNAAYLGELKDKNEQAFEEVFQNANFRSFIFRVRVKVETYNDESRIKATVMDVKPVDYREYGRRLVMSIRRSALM
T5 sequence (P15927 whole entry partner, one chain of several): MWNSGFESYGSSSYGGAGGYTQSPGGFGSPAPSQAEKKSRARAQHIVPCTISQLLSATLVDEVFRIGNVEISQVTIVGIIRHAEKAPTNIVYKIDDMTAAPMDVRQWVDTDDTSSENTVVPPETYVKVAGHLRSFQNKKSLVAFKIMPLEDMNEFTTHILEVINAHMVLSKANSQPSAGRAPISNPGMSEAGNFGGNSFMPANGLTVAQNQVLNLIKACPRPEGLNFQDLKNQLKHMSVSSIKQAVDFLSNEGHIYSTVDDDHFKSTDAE
T5 sequence (P35244 whole entry partner, one chain of several): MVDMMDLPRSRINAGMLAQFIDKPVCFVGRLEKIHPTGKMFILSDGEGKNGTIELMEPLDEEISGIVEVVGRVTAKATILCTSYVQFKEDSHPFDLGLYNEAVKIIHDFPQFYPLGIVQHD
T2 sequence (P27694 whole entry): as the sequence (P27694 whole entry partner, one chain of several) above
T2 sequence (P15927 whole entry): as the sequence (P15927 whole entry partner, one chain of several) above
T2 sequence (P35244 whole entry): as the sequence (P35244 whole entry partner, one chain of several) above
T1 sequence (P27694 whole entry): as the sequence (P27694 whole entry partner, one chain of several) above
T1 sequence (P15927 whole entry): as the sequence (P15927 whole entry partner, one chain of several) above
T1 sequence (P35244 whole entry): as the sequence (P35244 whole entry partner, one chain of several) above

SMILES: O=C(O[C@@H]1O[C@@H]2COC(=O)c3cc(O)c(O)c(O)c3-c3c(cc(O)c(O)c3O)C(=O)O[C@H]([C@H]1O)[C@@H]2O)c1cc(O)c(O)c(O)c1 [NP-004255, corilagin]
- binding to RPA (WaterLOGSY) (RPA): also bound RPA
- effect on the RPA-ssDNA interaction (RPA-ssDNA interaction): did not affect the RPA-ssDNA complex
- binding to RAD52 (WaterLOGSY) (RAD52): physically interacts with RAD52
- IC50 (RAD52-ssDNA interaction): 1500 ± 200 nM
- IC50 [1]: 500 ± 100 nM
- effect on the RAD52-dsDNA interaction (RAD52-dsDNA interaction): had no effect on the RAD52-dsDNA interaction
